Reference: article PMC8469457, “Proline-Specific Fungal Peptidases: Genomic Analysis and Identification of Secreted DPP4 in Alkaliphilic and Alkalitolerant Fungi” (Journal of Fungi, 2021)

Target: T1, DPP4 of S. alkalinus F11 (secreted DPP4, culture filtrate) (Sodiomyces alkalinus, UniProt A0A3N2PX53)
T1 construct: gene SODALDRAFT_276413; native secreted enzyme, unpurified 14-day culture filtrate; link of ROT38925.1 to the assayed activity is inferred
T1 sequence (A0A3N2PX53 27-782): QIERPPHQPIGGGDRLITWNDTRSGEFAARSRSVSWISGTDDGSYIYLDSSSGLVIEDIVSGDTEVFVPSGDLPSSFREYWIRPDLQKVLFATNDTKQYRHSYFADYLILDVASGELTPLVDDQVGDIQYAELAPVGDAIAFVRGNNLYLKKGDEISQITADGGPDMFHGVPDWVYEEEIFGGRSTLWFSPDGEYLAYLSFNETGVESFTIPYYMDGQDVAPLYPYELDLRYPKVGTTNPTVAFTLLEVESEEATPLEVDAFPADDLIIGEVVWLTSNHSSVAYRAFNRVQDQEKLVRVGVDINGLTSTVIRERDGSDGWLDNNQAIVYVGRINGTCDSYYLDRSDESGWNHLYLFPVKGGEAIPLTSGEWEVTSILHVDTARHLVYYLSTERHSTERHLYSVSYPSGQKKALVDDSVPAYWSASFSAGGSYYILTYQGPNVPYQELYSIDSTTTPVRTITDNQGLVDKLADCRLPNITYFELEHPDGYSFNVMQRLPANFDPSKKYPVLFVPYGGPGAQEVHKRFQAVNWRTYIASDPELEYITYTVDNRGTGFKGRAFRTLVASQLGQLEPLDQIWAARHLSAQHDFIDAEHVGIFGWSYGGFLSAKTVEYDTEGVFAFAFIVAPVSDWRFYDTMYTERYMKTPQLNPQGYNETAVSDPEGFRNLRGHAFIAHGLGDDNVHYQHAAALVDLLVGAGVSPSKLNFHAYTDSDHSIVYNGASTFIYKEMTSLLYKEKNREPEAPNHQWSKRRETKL
Assay: residual hydrolysis of Ala-Pro-pNa, absorbance at […] nm, culture filtrate
Format: biochemical
Conditions: read-out: % residual activity at 0.25 mM

remaining activity at 250 µM: 3.2%
SMILES: CC[C@H](C)[C@H](N)C(=O)N1CCC[C@H]1C(=O)N[C@H](C(=O)O)[C@@H](C)CC [diprotin A]
